From ChEMBL document CHEMBL1201862, “PubChem BioAssay data set” (2004)
Active and inactive are the calls of the source.

Assays:
[1] = target: Arf-GAP with SH3 domain, ANK repeat and PH domain-containing protein 1 (Homo sapiens, UniProt Q9ULH1); format: functional;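 further: biochemical fluorescence polarization dose–response screen measuring inhibition of ASAP1; ASAP1 GAP domain stimulating GTP hydrolysis by truncated human ARF1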
[2] = target: Protein-tyrosine kinase 2-beta (Homo sapiens, UniProt Q14289);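 further: potency of inhibitors of PYK2 kinase phosphorylation of poly-GT substrate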
[3] = target: ADP-ribosylation factor GTPase-activating protein 1 (Rattus norvegicus, UniProt Q62848); assay: Fluorescence polarization-based biochemical high throughput dose response screening assay to identify inhibitors of ADP-ribosylation factor GTPase activating protein 1 (ARFGAP1).; format: functional
[4] = viability of PTEN-deleted HCT116 cells – cell-based, HCT116 PTEN knockout, dose response (AID 1047); format: functional;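 further: HCT116 colon tumor cells with PTEN knocked out; cells exposed to compound for 60 hours before readout; potency for loss of cell viability measured by luminescence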
[5] = target: Peroxisome proliferator-activated receptor gamma/Nuclear receptor coactivator 2 (Homo sapiens, UniProt P37231); assay: (§1) TR-FRET dose response biochemical High Throughput Screening assay for agonists of the steroid receptor coactivator 2 (SRC-2) recruitment by the peroxisome proliferator-activated receptor gamma (PPAR gamma): non-selective agonists. [Related pubchem assays: 1297, 1032 ]; format: functional
Genome polyprotein = Genome polyprotein (Hepatitis C virus, UniProt Q2Q167); assay: disruption of hepatitis C core self-association – biochemical, TR-FRET, dose response (AID 2159); design: species or system Hepacivirus hominis;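 further: blocks dimerization of HCV core protein measured by TR-FRET between tagged core106 pairs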
Estrogen receptor = target: T1, Estrogen receptor (Homo sapiens, UniProt P03372);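 further: potency for inhibiting coactivator peptide recruitment to the receptor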
T1 sequence (P03372 whole entry): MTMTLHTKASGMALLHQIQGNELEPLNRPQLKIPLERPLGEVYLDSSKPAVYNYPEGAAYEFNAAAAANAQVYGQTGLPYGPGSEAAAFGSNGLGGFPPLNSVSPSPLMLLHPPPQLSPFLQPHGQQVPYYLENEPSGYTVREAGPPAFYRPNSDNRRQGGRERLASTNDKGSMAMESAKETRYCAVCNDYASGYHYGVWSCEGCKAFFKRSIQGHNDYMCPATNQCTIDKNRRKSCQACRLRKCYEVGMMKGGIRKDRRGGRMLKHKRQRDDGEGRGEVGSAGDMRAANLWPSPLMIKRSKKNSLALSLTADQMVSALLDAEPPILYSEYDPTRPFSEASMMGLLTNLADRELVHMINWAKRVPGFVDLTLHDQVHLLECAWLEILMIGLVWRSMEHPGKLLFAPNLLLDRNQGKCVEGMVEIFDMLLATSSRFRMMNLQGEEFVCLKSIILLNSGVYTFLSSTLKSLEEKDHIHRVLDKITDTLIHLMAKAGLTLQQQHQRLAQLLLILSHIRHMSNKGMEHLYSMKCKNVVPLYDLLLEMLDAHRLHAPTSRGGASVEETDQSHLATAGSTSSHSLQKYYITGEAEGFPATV

[6] = target: Peroxisome proliferator-activated receptor gamma/Nuclear receptor coactivator 3 (Homo sapiens, UniProt P37231); assay: as §1, with “3 (SRC-3)” for “2 (SRC-2)”, “1301 (Confirmation screen.), 1048 (Primary screen.)]” for “1297, 1032 ]”; format: functional
[7] = target: Peroxisome proliferator-activated receptor gamma/Nuclear receptor coactivator 1 (Homo sapiens, UniProt P37231); assay: as §1, with “1 (SRC-1)” for “2 (SRC-2)”, “assays (depositor defined):AID1300, AID1808, AID504735, AID631]” for “assays: 1297, 1032 ]”; format: protein assay
Ephrin type-A receptor 4 = Ephrin type-A receptor 4 (Mus musculus, UniProt Q03137); assay: EphA4 ligand-binding antagonists – biochemical, colorimetric, mouse EphA4, primary screen (AID 689); format: functional
[8] = M. tuberculosis growth inhibition, HTS (AID 449762); format: functional
[9] = target: Mitochondrial peptide methionine sulfoxide reductase (Bos taurus, UniProt P54149); assay: Absorbance-based biochemical high throughput dose response assay for activators of Methionine sulfoxide reductase A (MsrA).; format: functional
SUMO-activating enzyme [10] = target: T2, SUMO-activating enzyme (Homo sapiens, UniProt Q9UBT2); assay: blockers of UBC9-mediated SUMO conjugation – biochemical, AlphaScreen, SUMOylation inhibitor project, confirmation (AID 2018); format: functional
[11] = target: T3, Voltage-gated N-type calcium channel alpha-1B subunit/Amyloid beta A4 precursor protein-binding family A member 1 (Homo sapiens, UniProt Q00975+Q02410); format: protein assay
Large T antigen = Large T antigen (Simian virus 40, UniProt P03070); format: functional, Betapolyomavirus macacae;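 further: Confirmatory-stage PubChem screen for compounds that inhibit SV40 T antigen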
[12] = target: Induced myeloid leukemia cell differentiation protein Mcl-1 (Homo sapiens, UniProt Q07820); format: functional
SUMO-activating enzyme [13] = target: T2, SUMO-activating enzyme; assay: blockers of SAE1/SAE2–UBC9 SUMO transfer – biochemical, HTRF, uHTS, primary screen (AID 2006); format: protein-complex assay
[14] = target: T3, Voltage-gated N-type calcium channel alpha-1B subunit/Amyloid beta A4 precursor protein-binding family A member 1; format: protein assay; remark: listed apart in the source
[15] = target: Bifunctional protein GlmU (Mycobacterium tuberculosis, UniProt P9WMN3); assay: Inhibitors of Mycobacterial Glucosamine-1-phosphate acetyl transferase (GlmU). Secondary screen.; design: species or system Mycobacterium tuberculosis H37Rv
[16] = target: Beta-adrenergic receptor kinase 1 (Homo sapiens, UniProt P25098); assay: aptamer displacement from bead-bound GRK2 – biochemical, cherry pick 1, bead flow cytometry, dose response (AID 504500)
ORF 73 = ORF 73 (Human herpesvirus 8, UniProt O40947); assay: KSHV LANA DNA-binding disruption – biochemical, fluorescence polarization, cherry-picked samples, dose response (AID 504725); design: species or system Human gammaherpesvirus 8;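 further: fluorescence polarization of a labeled DNA duplex reporting LANA DNA binding; potency is for inhibitors that block LANA binding to the DNA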
[17] = target: Eukaryotic translation initiation factor 4E (Mus musculus, UniProt P63073); assay: blockers of eIF4G binding by eIF4E – biochemical, TR-FRET, dose response (AID 855); format: functional;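 further: potency for disrupting eIF4E binding to eIF4GI seen as loss of FRET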
Estrogen receptor beta = Estrogen receptor beta (Homo sapiens, UniProt Q92731);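 further: recombinant ER-beta bound to coactivator SRC1 peptide in presence of estradiol agonist; inhibitors block coactivator peptide binding and lower the FRET signal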
Bcl-2-related protein A1 [18] = target: T4, Bcl-2-related protein A1 (Mus musculus, UniProt Q07440); assay: small-molecule antagonists of Bfl-1/BH3 interaction – biochemical, TR-FRET, mouse Bfl-1, confirmation (AID 621);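 further: TR-FRET binding of GST-Bfl-1 to FITC-labelled Bid peptide via terbium antibody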
T4 sequence (Q07440 whole entry): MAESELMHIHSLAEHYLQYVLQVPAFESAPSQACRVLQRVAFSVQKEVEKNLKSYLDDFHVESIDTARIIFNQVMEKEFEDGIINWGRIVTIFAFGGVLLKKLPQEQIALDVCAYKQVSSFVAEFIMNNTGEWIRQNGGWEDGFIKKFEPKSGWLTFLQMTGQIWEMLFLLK

Bcl-2-related protein A1 [19] = target: T4, Bcl-2-related protein A1; assay: displacement of Bid BH3 peptide from Bfl-1 – biochemical, fluorescence polarization, FITC-Bid, mouse, primary screen (AID 432)
[20] = target: T5, Heat shock factor protein 1 (Mus musculus, UniProt P38532); assay: enhancement of HSF1-driven luciferase signal – cell-based, NIH3T3, luminescence, dose retest, confirmation (AID 435004); format: functional;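 further: stress induced by proteasome inhibitor MG132 added 30 min after compound; luciferase reporter driven by HSF1 response element in NIH3T3 cells; actives raise luminescence as potentiators of the MG132 stress response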
T5 sequence (P38532 whole entry): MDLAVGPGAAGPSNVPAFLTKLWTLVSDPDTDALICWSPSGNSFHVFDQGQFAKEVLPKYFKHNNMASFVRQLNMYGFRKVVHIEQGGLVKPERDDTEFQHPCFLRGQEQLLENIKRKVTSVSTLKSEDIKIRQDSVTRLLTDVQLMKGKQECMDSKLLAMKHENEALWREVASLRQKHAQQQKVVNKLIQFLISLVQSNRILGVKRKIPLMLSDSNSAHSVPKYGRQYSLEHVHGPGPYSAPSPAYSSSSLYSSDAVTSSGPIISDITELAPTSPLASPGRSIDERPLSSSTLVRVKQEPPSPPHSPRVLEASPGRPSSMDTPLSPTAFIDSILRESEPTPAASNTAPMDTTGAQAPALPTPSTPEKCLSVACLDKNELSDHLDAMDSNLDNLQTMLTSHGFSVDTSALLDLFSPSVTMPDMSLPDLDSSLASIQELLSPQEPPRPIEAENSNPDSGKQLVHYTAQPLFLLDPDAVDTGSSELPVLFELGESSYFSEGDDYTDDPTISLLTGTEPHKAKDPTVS

[21] = inhibition of ARNT PAS-B/TACC3 complex formation – biochemical, AlphaScreen, cherry-picked samples, confirmation (AID 651703); format: functional, Homo sapiens;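 further: His-tagged ARNT PAS-B domain paired with GST-TACC3 E629A dimer coactivator fragment; potency of inhibitors that break up the complex and lower AlphaScreen signal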
[22] = target: T6, Serine/threonine-protein phosphatase (Homo sapiens, UniProt Q9BPW0); assay: inhibition of protein phosphatase 5 activity – biochemical, fluorescence, dose response (AID 2395)
T6 sequence (Q9BPW0 whole entry): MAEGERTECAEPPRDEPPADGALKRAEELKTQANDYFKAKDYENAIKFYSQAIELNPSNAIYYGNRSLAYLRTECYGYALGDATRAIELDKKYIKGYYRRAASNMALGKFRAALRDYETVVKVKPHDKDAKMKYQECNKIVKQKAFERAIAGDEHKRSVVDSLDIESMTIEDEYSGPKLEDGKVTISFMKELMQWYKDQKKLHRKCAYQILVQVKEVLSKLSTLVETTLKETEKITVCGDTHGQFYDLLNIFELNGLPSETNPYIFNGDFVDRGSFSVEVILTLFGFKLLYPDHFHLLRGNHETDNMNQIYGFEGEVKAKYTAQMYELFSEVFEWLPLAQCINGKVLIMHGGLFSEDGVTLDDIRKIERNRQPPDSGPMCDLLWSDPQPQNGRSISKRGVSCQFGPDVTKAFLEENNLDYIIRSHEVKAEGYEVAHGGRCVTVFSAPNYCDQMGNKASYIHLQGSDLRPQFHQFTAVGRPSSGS

[23] = target: Serine/threonine-protein phosphatase PP1-alpha catalytic subunit (Homo sapiens, UniProt P62136); assay: inhibition of protein phosphatase 1 activity – biochemical, fluorescence, dose response (AID 2394)
[24] = microbe, parasite or virus in culture; format: functional; details: Mycobacterium tuberculosis
Streptococcus = assay: GAS UMAA2166 growth inhibition – luminescence, BacTiterGlo, counter-screen for streptokinase expression inhibitor project, dose response (AID 1915); format: functional, organism-based;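 further: potency for reduction of bacterial viability or growth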
[25] = tested on: Streptococcus sp. 'group A'; assay: Streptococcus pyogenes SK(-)GAS viability under kanamycin – luminescence, BacTiterGlo, confirmation, counter-screen for streptokinase expression inhibitor project, dose response (AID 1900); format: functional, organism-based
cells = format: functional
[26] = Vero E6 cell cytotoxicity, dose response, cytotoxicity control for non-replicating M. tuberculosis project, secondary assay (AID 492998); format: functional, VeroE6; details: Vero C1008
[27] = THP-1 cell cytotoxicity, dose response, cytotoxicity control for non-replicating M. tuberculosis project (AID 489025); format: functional
[28] = target: E3 ubiquitin-protein ligase Mdm2 (Homo sapiens, UniProt Q00987); assay: MDM2-luc reporter signal enhancers, multi-concentration potency testing, MDM2 ubiquitin-protein ligase inhibitor program, whole-cell format, luminescence detection, 384-well microplate (AID 1394); format: functional;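 further: MDM2 E3 inhibitors raise luminescence so EC50 is for signal enhancement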
[29] = target: Heat shock protein HSP 90-alpha (Homo sapiens, UniProt P07900); assay: Luminescence-based dose response biochemical high throughput screening assay for inhibitors of the Heat Shock Protein 90 (HSP90). [Related pubchem assays: 1831 (Summary AID.), 1846 (Confirmation screen.), 1789 (Primary screen.)]

T3 sequence (Q00975 whole entry): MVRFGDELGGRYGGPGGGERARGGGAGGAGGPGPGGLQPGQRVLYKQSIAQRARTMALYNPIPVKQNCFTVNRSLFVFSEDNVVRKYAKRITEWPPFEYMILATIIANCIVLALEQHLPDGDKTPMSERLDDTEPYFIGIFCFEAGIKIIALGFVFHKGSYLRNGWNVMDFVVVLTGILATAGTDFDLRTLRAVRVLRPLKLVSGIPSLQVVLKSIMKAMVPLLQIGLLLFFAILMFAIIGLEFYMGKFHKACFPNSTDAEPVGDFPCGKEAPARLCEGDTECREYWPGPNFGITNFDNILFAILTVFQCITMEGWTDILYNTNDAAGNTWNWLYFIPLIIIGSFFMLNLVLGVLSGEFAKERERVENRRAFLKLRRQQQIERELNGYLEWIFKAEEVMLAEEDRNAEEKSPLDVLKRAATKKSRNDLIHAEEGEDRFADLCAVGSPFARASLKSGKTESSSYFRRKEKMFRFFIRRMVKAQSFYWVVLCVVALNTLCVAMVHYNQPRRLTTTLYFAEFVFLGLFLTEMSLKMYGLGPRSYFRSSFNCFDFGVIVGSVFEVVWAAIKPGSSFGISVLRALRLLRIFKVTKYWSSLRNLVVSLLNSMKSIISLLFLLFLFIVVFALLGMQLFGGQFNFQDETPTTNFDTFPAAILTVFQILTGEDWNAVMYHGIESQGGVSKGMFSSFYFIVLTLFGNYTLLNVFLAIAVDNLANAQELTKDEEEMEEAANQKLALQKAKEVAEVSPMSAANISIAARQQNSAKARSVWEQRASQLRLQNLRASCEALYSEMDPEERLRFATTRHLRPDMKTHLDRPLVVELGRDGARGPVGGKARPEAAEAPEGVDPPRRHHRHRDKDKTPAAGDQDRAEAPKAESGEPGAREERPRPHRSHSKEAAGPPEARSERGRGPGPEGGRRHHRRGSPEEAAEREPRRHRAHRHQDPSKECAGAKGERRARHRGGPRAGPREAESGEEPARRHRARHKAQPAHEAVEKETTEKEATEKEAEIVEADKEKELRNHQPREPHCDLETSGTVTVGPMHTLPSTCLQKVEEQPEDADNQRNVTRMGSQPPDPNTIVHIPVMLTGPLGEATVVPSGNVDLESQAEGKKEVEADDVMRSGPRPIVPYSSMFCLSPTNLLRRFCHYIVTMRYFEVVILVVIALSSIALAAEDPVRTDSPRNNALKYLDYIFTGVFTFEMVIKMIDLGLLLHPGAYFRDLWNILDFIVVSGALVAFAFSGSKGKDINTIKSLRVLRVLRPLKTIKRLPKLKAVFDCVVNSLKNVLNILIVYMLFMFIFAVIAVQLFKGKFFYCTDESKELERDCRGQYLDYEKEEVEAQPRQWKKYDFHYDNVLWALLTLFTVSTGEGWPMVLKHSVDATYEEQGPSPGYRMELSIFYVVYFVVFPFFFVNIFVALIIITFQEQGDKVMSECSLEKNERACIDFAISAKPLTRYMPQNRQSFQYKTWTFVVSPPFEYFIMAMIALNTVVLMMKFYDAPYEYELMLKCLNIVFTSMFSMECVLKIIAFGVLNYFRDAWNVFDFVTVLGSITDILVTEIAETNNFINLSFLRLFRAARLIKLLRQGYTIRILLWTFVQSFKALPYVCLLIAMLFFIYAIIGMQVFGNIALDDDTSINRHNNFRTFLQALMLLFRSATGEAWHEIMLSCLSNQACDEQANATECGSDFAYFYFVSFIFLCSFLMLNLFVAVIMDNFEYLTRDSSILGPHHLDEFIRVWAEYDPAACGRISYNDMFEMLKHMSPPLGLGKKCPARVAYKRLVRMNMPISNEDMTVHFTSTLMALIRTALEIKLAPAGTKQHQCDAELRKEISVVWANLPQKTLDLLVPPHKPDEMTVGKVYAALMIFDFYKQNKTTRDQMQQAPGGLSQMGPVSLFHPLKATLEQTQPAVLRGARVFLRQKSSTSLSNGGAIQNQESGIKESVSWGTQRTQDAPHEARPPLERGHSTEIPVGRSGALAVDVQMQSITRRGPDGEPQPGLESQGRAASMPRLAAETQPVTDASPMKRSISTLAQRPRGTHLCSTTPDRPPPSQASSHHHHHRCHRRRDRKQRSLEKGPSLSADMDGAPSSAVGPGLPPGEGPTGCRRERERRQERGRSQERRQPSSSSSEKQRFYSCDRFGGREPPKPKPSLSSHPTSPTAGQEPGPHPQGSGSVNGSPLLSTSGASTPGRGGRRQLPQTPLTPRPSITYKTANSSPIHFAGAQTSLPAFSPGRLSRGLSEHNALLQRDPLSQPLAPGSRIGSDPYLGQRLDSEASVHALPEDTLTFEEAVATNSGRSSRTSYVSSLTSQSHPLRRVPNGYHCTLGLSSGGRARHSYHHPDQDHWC
T3 sequence (Q02410 whole entry): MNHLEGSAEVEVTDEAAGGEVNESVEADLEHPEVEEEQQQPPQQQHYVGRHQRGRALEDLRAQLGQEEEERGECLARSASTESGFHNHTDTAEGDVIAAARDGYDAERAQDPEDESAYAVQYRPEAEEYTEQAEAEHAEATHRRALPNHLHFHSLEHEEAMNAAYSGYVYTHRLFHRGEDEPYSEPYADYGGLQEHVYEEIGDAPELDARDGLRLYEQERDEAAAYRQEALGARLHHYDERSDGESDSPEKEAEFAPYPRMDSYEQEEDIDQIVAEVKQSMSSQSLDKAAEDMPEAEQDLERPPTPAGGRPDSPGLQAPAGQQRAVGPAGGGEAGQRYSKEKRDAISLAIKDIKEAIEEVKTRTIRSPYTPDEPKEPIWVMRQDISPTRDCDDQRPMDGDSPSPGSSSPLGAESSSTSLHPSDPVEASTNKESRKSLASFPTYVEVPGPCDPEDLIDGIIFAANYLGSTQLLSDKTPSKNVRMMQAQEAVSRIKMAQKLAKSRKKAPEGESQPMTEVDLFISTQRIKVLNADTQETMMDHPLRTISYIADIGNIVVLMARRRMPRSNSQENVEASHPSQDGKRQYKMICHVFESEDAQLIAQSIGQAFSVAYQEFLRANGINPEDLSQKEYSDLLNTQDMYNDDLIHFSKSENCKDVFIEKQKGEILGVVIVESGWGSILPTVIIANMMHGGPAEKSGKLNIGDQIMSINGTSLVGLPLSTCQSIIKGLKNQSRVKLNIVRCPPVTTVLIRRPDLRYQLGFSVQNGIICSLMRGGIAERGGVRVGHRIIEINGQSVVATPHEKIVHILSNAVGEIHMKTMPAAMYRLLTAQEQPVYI
T2 sequence (Q9UBE0 whole entry): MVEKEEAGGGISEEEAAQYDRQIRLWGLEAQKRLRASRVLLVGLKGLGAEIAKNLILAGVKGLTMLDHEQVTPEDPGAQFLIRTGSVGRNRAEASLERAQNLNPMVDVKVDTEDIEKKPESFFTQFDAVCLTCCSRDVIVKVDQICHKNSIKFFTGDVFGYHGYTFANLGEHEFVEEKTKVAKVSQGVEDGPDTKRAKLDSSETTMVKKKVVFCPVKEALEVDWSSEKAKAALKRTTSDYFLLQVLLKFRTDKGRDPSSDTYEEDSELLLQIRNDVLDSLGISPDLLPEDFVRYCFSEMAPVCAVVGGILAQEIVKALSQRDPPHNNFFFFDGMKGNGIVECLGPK
T2 sequence (Q9UBT2 whole entry): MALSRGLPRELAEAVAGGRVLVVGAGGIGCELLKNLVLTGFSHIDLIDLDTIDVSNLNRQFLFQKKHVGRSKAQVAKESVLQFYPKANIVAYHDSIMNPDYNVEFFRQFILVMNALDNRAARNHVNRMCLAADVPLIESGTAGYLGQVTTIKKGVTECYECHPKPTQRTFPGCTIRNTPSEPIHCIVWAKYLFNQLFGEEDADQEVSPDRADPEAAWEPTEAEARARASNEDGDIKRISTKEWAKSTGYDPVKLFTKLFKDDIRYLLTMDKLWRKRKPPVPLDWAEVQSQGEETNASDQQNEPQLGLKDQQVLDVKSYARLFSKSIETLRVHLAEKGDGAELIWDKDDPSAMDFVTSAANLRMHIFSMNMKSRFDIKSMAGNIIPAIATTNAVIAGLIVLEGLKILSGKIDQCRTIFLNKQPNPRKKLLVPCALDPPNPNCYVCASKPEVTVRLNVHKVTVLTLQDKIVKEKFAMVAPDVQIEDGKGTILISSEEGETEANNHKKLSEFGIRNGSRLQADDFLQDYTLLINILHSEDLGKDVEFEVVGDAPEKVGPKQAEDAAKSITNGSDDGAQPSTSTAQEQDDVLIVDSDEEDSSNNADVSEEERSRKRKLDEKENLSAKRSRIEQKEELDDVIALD
Beta-adrenergic receptor kinase 1, sequence (P25098 whole entry): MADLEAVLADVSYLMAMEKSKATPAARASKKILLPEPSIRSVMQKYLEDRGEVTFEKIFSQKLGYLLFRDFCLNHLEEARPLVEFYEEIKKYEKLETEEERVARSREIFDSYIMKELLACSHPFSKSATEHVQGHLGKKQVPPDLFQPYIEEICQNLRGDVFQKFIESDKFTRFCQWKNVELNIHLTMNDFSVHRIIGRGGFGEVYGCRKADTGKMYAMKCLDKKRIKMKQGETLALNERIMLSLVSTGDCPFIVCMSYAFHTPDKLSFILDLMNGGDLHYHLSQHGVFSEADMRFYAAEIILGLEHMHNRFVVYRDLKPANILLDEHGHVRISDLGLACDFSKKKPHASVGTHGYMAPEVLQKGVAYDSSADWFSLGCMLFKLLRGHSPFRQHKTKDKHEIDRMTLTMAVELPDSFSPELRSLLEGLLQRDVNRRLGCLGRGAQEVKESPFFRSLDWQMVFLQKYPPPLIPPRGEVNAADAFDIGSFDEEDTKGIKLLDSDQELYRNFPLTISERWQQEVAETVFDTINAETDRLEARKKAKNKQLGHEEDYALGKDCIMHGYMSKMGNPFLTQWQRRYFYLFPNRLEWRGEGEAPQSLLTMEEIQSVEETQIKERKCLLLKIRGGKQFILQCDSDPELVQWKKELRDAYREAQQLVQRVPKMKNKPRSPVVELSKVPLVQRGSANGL
Eukaryotic translation initiation factor 4E, sequence (P63073 whole entry): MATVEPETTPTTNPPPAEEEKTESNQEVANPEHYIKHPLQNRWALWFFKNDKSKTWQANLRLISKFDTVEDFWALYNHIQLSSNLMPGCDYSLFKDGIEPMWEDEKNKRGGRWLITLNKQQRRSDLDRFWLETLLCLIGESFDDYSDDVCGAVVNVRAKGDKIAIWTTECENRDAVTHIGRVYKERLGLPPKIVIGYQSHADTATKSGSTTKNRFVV

Cc1ccc2cc3cc(C(=O)NCc4ccc5c(c4)OCO5)oc3nc2c1
IC50 [1]: 12.5 µM (inactive) | IC50 [2]: 46.5 µM (not active) | IC50 [3]: 16.7 µM (inactive) | EC50 [4]: 20.9 µM (active)

Cc1cc(C(=O)OCC(=O)c2ccc(Br)s2)no1
EC50 [5]: 3.89 µM (active) | IC50 (Genome polyprotein): > 49.8 µM (not active) | IC50 (Estrogen receptor): 36.2 µM (not active) | EC50 [6]: > 79.4 µM (not active) | EC50 [7]: 137 µM (inactive)

Cc1ccccc1C(=O)c1cccn1CC(=O)NCC1CCCO1 (configuration not stated)
IC50 (Ephrin type-A receptor 4): > 100 µM (not active)

Cc1ccc2[nH]c3c(c2c1)CN(C(=O)CN1CCN(c2ccccn2)CC1)CC3
IC50 [8]: > 100 µM (active) | EC50 [9]: > 104 µM (inactive)

Cc1ccc(NC(=O)CN2C(=O)N/C(=C/c3cccn3-c3ccc(C(=O)O)cc3)C2=O)cc1
IC50 (SUMO-activating enzyme [10]): 1.09 µM (active) | IC50 [11]: 10.5 µM (active) | IC50 (Large T antigen): 24.7 µM (active) | IC50 [12]: 0.996 µM (not active) | IC50 (SUMO-activating enzyme [13]): 12 µM (active) | IC50 [14]: 28.9 µM (active) | IC50 [15]: 29.4 µM (active) | EC50 [16]: 1.21 µM (active) | AC50 (ORF 73): 33.9 µM (active) | IC50 [17]: 9.54 µM (active)

CC(=N)/C(C#N)=C(/O)CSc1nnc(Nc2cccc(C)c2C)s1
IC50 (Estrogen receptor beta): 12.3 µM (active)

CC(C)[C@H]1C(=O)N2CCC[C@H]2[C@]2(O)O[C@](NC(=O)[C@@H]3C=C4c5cccc6[nH]cc(c56)C[C@H]4N(C)C3)(C(C)C)C(=O)N12 [ERGOCORNINE]
IC50 (Bcl-2-related protein A1 [18]): > 100 µM (not active) | IC50 (Bcl-2-related protein A1 [19]): > 100 µM (not active)

CCCCN(CC)c1nc(N)c2c(N)nc(OCC)cc2c1C#N
EC50 [20]: > 260 µM (inactive) | AC50 [21]: 92.8 µM (active) | IC50 [22]: 15.2 µM (not active) | IC50 [23]: > 67 µM (not active) | CC50 [24]: > 40 µM (active)

O=C(Nc1nnc(-c2ccc(Cl)cc2)o1)c1ccccc1Br
EC50 (Streptococcus): 5.91 µM (active) | EC50 [25]: 3.15 µM (active) | IC50 (cells): 3.74 µM (active) | CC50 [26]: 18 µM (active) | CC50 [27]: 37 µM (active) | EC50 [28]: 12.8 µM (not active)

Cc1nc(NC(=O)c2ccc(F)cc2)sc1C(=O)Nc1ccc2c(c1)CCC2
IC50 [29]: 3.84 µM (active)
